US20230338336A1, “METHODS OF TREATING CONDITIONS RELATED TO THE S1P1 RECEPTOR” (Arena Pharmaceuticals, Inc., priority 2020, published 2023)

What was measured:
[1] = Safety and tolerability in clinical studies (Phase 1, healthy adult subjects); type: in vivo, human; settings: approximately 281 adult subjects, various doses; single doses up to 5 mg, repeated doses up to 4 mg QD
Procedure: (§1) Compound 1, or a pharmaceutically acceptable salt, solvate, or hydrate thereof, is an orally administered, selective, synthetic sphingosine 1-phosphate (S1P) receptor 1, 4, 5 modulator. […] Its safety and tolerability have been evaluated in Phase 1 studies with healthy adult subjects at single doses up to 5 mg and repeated doses up to 4 mg once daily (QD).

[2] = Phase 2 dose-ranging study in UC patients and open-label extension; type: in vivo, human; settings: UC patients
Procedure: as §1

[3] = tested on: microdissected human scalp hair follicles (HF); experiment: Hair follicle organ culture model, non-inflammatory condition (ex vivo); type: cell-based
Procedure: A hair follicle organ culture model was used to analyze the direct effects of Compound 1 on HF physiology in a non-inflammatory condition. Human full thickness scalp skin from four healthy donors was cultured ex vivo and treated in four groups with 11 HF's per groups: 1. vehicle (DMSO control), 2. 10 nM Compound 1, 3. 100 nM Compound 1, 4. 1 μM Compound 1. Before treatment began, […] full length microdissected HF's were isolated, pictures and length measurements were taken of the HF's, and the HF's were cultured in WCM. On Days 1, 3, and 5 pictures of HF elongation were taken, the medium was changed, and treatment in groups 1-4 occurred. Days 2 and 4 were rest days. Additionally, on Day 2 three HF's per group were frozen for RNAseq twenty-four hours after the previous day's treatment. On Day 6, pictures were taken of the HF elongation, the culture was closed, and 8 HF's per group were embedded in optimal cutting temperature compound (OCT compound) for further microscopic immunohistological analysis.

[4] = tested on: human full thickness scalp skin / hair follicles; experiment: Human full thickness scalp skin model, AA-like inflammatory environment, with and without IFNγ (ex vivo); type: cell-based
Procedure: To evaluate the effects of Compound 1 on hair follicle physiology and pathology in an AA-like inflammatory environment, a human full thickness scalp skin model was used. Scalp biopsies from two healthy donors were cultured ex vivo and treated with tofacitinib (400 nM) and Compound 1 (10 nM, 100 nM, 1000 nM) in the presence and absence of IFNγ, a key pathological cytokine involved in AA development. 5 mm skin cubes with hair were acquired from a donor (Donor 1) and a donor (Donor 2). Ten groups were tested with one skin punch per group: 1. Vehicle (DMSO control) 2. Tofacitinib (400 nM), 3. 10 nM Compound 1, 4. 100 nM Compound 1 5. 1 μM Compound 1, 6. Vehicle (DMSO control)+100 IU IFNγ, 7. Tofacitinib (400 nM)+100 IU IFNγ, 8. 10 nM Compound 1+100 IU IFNγ, 9. 100 nM Compound 1+100 IU IFNγ 10. 1 μM Compound 1+100 IU IFNγ. On Day 0, isolation of 10×6mm punches with hair was performed. On Days 1, 3, and 5 the medium was changed and treatment with groups 1-10 occurred. Days 2 and 4 were rest days. On Day 6, the culture was closed and embedded in OCT Compound for further microscopic analysis.

O=C(O)C[C@H]1CCc2c1[nH]c1ccc(OCc3ccc(C4CCCC4)c(C(F)(F)F)c3)cc21 [Compound 1, (R)-2-(7-(4-cyclopentyl-3-(trifluoromethyl)benzyloxy)-1,2,3,4-tetrahydrocyclopenta[b]indol-3-yl)acetic acid]
Safety and tolerability [1]: safe and well-tolerated
Endoscopic and symptomatic improvements versus placebo ([2]; 2 mg QD for 12 weeks): clinically meaningful and statistically significant
Duration of beneficial effects in open-label extension study ([2]; up to 46 weeks): Sustained beneficial effects
Hair cycle staging / hair cycle score (anagen phase) ([3]; 10 nM and 100 nM, 6-day HF organ culture, vs vehicle (FIG. 7)): tendentially prolonged the anagen phase
MICA expression (stress signal) ([3]; 100 nM, anagen and catagen HFs combined and anagen HFs alone (FIG. 9)): significantly reduced
RNAseq: genes involved in hair keratinization ([3]; 10 nm and 100 nm groups, HFs frozen 24 h after treatment): significant up-regulation
MHC class I (MHC-I) expression in dermal cup, germinative hair matrix, outer root sheath ([3]; anagen and catagen HFs combined and anagen HFs alone (FIGS. 8a, 8b)): no change
IFNγ-mediated MHC-I up-regulation in the dermal cup of the hair follicle ([4]; +100 IU IFNγ (FIG. 11)): prevented
Hair cycle staging / hair cycle score (anagen) ([4]; Donor 1, without IFNγ (FIG. 10)): tendentially prolonged anagen
Increase of CD8-S1P1+ cells showing lymphocytic morphology ([4]; Donor 2 (FIG. 12)): prevented
Increase of perifollicular CD8+ cells showing lymphocytic morphology ([4]; Donor 2 (FIG. 12)): prevented
